Laboratory results: patent publication US20220089575A1, “FARNESOID X RECEPTOR AGONISTS AND USES THEREOF” (Metacrine, Inc., priority 2017, published 2022)

Molecular target: T1, hFXR (Homo sapiens, UniProt Q96RI1)
T1 construct: expressed in transfected cells; host or cells: CV-1 cells
T1 sequence (Q96RI1 1-486): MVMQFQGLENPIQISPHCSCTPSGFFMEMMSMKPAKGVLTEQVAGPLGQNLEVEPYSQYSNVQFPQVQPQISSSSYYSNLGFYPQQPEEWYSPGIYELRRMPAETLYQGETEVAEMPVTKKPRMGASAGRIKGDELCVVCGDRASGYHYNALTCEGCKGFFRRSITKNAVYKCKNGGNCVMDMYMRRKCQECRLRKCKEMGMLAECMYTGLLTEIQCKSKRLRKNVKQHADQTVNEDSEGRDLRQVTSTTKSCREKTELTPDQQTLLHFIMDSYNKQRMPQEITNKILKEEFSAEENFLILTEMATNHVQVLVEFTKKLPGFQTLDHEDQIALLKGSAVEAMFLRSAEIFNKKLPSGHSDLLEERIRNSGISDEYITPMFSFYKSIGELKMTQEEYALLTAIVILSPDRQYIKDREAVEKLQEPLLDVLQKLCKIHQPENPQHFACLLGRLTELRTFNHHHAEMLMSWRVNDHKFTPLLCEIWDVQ
T1 sequence (P19793 1-462 partner): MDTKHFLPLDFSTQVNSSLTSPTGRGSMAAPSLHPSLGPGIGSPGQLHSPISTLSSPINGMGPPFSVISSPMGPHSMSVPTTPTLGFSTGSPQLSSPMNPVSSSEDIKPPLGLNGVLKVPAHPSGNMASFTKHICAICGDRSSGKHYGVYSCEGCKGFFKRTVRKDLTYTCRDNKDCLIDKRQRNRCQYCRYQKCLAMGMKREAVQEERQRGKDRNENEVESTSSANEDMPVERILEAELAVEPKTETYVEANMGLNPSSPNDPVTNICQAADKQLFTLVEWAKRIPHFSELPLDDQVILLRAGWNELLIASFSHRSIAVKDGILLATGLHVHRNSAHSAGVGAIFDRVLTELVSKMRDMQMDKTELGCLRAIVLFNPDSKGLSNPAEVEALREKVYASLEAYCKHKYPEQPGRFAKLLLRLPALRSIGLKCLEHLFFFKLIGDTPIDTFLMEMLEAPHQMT
Test: In Vitro FXR Assay (TK): TK-ECRE-luc reporter in transfected CV-1 cells
Format: cell-based
Settings: 18 hrs, luminescence, maximum efficacy of <25% of the Fexarmine control classified as '+'
In short: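 CV-1, transient co-transfection: hFXR + hRXR + TK-ECRE-luc + pCMX-YFP; charcoal-stripped serum. 18 h post-transfection, DMSO serial dilutions of cpd added; 18 h incubation; lysis, luminescence.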

EC50, ≤ 0.25 µM:
COc1ncc([C@H]2CC[C@H](CN(c3cccc(-c4cnn(C5CC5)c4)c3)C(=O)[C@H]3CC[C@H](OC(=O)NCCO)CC3)CC2)cc1Cl [Compound 6.23, trans-4-(((trans-4-(5-Chloro-6-methoxypyridin-3-yl)cyclohexyl)methyl) (3-(1-cyclopropyl-1H-pyrazol-4-yl)phenyl)carbamoyl)cyclohexyl (2-hydroxyethyl)carbamate]
COc1ccc([C@H]2CC[C@H](CN(c3cccc(-c4cnn(C5CC5)c4)c3)C(=O)[C@H]3CC[C@H](OC(=O)NC4COC4)CC3)CC2)cc1C [Compound 6.24, trans-4-((3-(1-Cyclopropyl-1H-pyrazol-4-yl)phenyl)((trans-4-(4-methoxy-3-methylphenyl)cyclohexyl)methyl)carbamoyl)cyclohexyl oxetan-3-ylcarbamate]
COc1ccc([C@H]2CC[C@H](CN(c3cccc(-c4cnn(C5CC5)c4)c3)C(=O)[C@H]3CC[C@H](OC(=O)N4CCN(C)CC4)CC3)CC2)cc1C [Compound 6.25, trans-4-((3-(1-Cyclopropyl-1H-pyrazol-4-yl)phenyl)((trans-4-(4-methoxy-3-methylphenyl)cyclohexyl)methyl)carbamoyl)cyclohexyl 4-methylpiperazine-1-carboxylate]
COCCN(C)C(=O)O[C@H]1CC[C@H](C(=O)N(C[C@H]2CC[C@H](c3ccc(OC)c(C)c3)CC2)c2cccc(-c3cnn(C4CC4)c3)c2)CC1 [Compound 6.26, trans-4-((3-(1-Cyclopropyl-1H-pyrazol-4-yl)phenyl)((trans-4-(4-methoxy-3-methylphenyl)cyclohexyl)methyl)carbamoyl)cyclohexyl (2-methoxyethyl) (methyl)carbamate]
COc1ccc([C@H]2CC[C@H](CN(c3cccc(-c4cnn(C5CC5)c4)c3)C(=O)[C@H]3CC[C@H](OC(=O)N4CCSCC4)CC3)CC2)cc1C [Compound 6.27, trans-4-((3-(1-Cyclopropyl-1H-pyrazol-4-yl)phenyl)((trans-4-(4-methoxy-3-methylphenyl)cyclohexyl)methyl)carbamoyl)cyclohexyl thiomorpholine-4-carboxylate]
COc1ccc([C@H]2CC[C@H](CN(c3cccc(-c4cnn(C5CC5)c4)c3)C(=O)[C@H]3CC[C@H](OC(=O)NCCO)CC3)CC2)nc1C#N [Compound 6.28, trans-4-(((trans-4-(6-Cyano-5-methoxypyridin-2-yl)cyclohexyl)methyl) (3-(1-cyclopropyl-1H-pyrazol-4-yl)phenyl)carbamoyl)cyclohexyl (2-hydroxyethyl)carbamate]
COc1ccc([C@H]2CC[C@H](CN(c3cccc(-c4cnn(C5CC5)c4)c3)C(=O)[C@H]3CC[C@H](OC(=O)N4CC(S(C)(=O)=O)C4)CC3)CC2)cc1C [Compound 6.29, trans-4-((3-(1-Cyclopropyl-1H-pyrazol-4-yl)phenyl)((trans-4-(4-methoxy-3-methylphenyl)cyclohexyl)methyl)carbamoyl)cyclohexyl 3-(methylsulfonyl)azetidine-1-carboxylate]
COc1ccc([C@H]2CC[C@H](CN(c3cccc(-c4cnn(C5CC5)c4)c3)C(=O)[C@H]3CC[C@H](OC(=O)N4CC(SC)C4)CC3)CC2)cc1C [Compound 6.30, trans-4-((3-(1-Cyclopropyl-1H-pyrazol-4-yl)phenyl)((trans-4-(4-methoxy-3-methylphenyl)cyclohexyl)methyl)carbamoyl)cyclohexyl 3-(methylthio) azetidine-1-carboxylate]
COc1ccc([C@H]2CC[C@H](CN(c3cc(-c4cnn(C(C)C)c4)ccn3)C(=O)[C@H]3CC[C@H](OC(=O)NC4CC4)CC3)CC2)nc1C [Compound 6.31, trans-4-((4-(1-Isopropyl-1H-pyrazol-4-yl)pyridin-2-yl)((trans-4-(5-methoxy-6-methylpyridin-2-yl)cyclohexyl)methyl)carbamoyl)cyclohexyl cyclopropylcarbamate]
COc1ccc([C@H]2CC[C@H](CN(c3cc(-c4cnn(C(C)C)c4)ccn3)C(=O)[C@H]3CC[C@H](OC(=O)NC(C)C)CC3)CC2)nc1C#N [Compound 6.32, trans-4-(((trans-4-(6-Cyano-5-methoxypyridin-2-yl)cyclohexyl)methyl) (4-(1-isopropyl-1H-pyrazol-4-yl)pyridin-2-yl)carbamoyl)cyclohexyl isopropylcarbamate]
COc1ccc([C@H]2CC[C@H](CN(c3cc(-c4cnn(C(C)C)c4)ccn3)C(=O)[C@H]3CC[C@H](OC(=O)NC4CC4)CC3)CC2)nc1C#N [Compound 6.33, trans-4-(((trans-4-(6-Cyano-5-methoxypyridin-2-yl)cyclohexyl)methyl) (4-(1-isopropyl-1H-pyrazol-4-yl)pyridin-2-yl)carbamoyl)cyclohexyl cyclopropylcarbamate]
COCCNC(=O)O[C@H]1CC[C@H](C(=O)N(C[C@H]2CC[C@H](c3ccc(OC)c(C#N)c3)CC2)c2cc(-c3cnn(C(C)C)c3)ccn2)CC1 [Compound 6.34, trans-4-(((trans-4-(3-Cyano-4-methoxyphenyl)cyclohexyl)methyl)(4-(1-isopropyl-1H-pyrazol-4-yl)pyridin-2-yl)carbamoyl)cyclohexyl (2-methoxyethyl)carbamate]
COc1ccc([C@H]2CC[C@H](CN(c3cc(-c4cnn(C(C)C)c4)ccn3)C(=O)[C@H]3CC[C@H](OC(=O)NC4CC4)CC3)CC2)cc1C#N [Compound 6.35, trans-4-(((trans-4-(3-Cyano-4-methoxyphenyl)cyclohexyl)methyl)(4-(1-isopropyl-1H-pyrazol-4-yl)pyridin-2-yl)carbamoyl)cyclohexyl cyclopropylcarbamate]
COc1ccc([C@H]2CC[C@H](CN(c3cc(-c4cnn(C(C)C)c4)ccn3)C(=O)[C@H]3CC[C@H](OC(=O)N4CC(S(C)(=O)=O)C4)CC3)CC2)cc1C#N [Compound 6.36, trans-4-(((trans-4-(3-Cyano-4-methoxyphenyl)cyclohexyl)methyl)(4-(1-isopropyl-1H-pyrazol-4-yl)pyridin-2-yl)carbamoyl)cyclohexyl 3-(methylsulfonyl)azetidine-1-carboxylate]
COc1ccc([C@H]2CC[C@H](CN(c3cc(-c4cnn(C(C)C)c4)ccn3)C(=O)[C@H]3CC[C@H](OC(=O)N4CCOCC4)CC3)CC2)cc1C#N [Compound 6.37, trans-4-(((trans-4-(3-Cyano-4-methoxyphenyl)cyclohexyl)methyl)(4-(1-isopropyl-1H-pyrazol-4-yl)pyridin-2-yl)carbamoyl)cyclohexyl morpholine-4-carboxylate]
COc1ccc([C@H]2CC[C@H](CN(c3cc(-c4cnn(C(C)C)c4)ccn3)C(=O)[C@H]3CC[C@H](OC(=O)N4CCN(C)CC4)CC3)CC2)cc1C#N [Compound 6.38, trans-4-(((trans-4-(3-Cyano-4-methoxyphenyl)cyclohexyl)methyl)(4-(1-isopropyl-1H-pyrazol-4-yl)pyridin-2-yl)carbamoyl)cyclohexyl 4-methylpiperazine-1-carboxylate]
COc1ccc([C@H]2CC[C@H](CN(c3cc(-c4cnn(C(C)C)c4)ccn3)C(=O)[C@H]3CC[C@H](OC(=O)N4CC(S(C)(=O)=O)C4)CC3)CC2)nc1C [Compound 6.39, trans-4-((4-(1-Isopropyl-1H-pyrazol-4-yl)pyridin-2-yl)((trans-4-(5-methoxy-6-methylpyridin-2-yl)cyclohexyl)methyl)carbamoyl)cyclohexyl 3-(methylsulfonyl)azetidine-1-carboxylate]
COc1ccc([C@H]2CC[C@H](CN(c3cc(-c4cnn(C(C)C)c4)ccn3)C(=O)[C@H]3CC[C@H](OC(=O)N4CCOCC4)CC3)CC2)nc1C [Compound 6.40, trans-4-((4-(1-Isopropyl-1H-pyrazol-4-yl)pyridin-2-yl)((trans-4-(5-methoxy-6-methylpyridin-2-yl)cyclohexyl)methyl)carbamoyl)cyclohexyl morpholine-4-carboxylate]
COc1ccc([C@H]2CC[C@H](CN(c3cc(-c4cnn(C(C)C)c4)ccn3)C(=O)[C@H]3CC[C@H](OC(=O)N4CCN(C)CC4)CC3)CC2)nc1C [Compound 6.41, trans-4-((4-(1-Isopropyl-1H-pyrazol-4-yl)pyridin-2-yl)((trans-4-(5-methoxy-6-methylpyridin-2-yl)cyclohexyl)methyl)carbamoyl)cyclohexyl 4-methylpiperazine-1-carboxylate]
